1 substance from patent US20250250559A1, “METHOD TO ANALYZE AND OPTIMIZE GENE EDITING MODULES AND DELIVERY APPROACHES” (Hoffmann-La Roche Inc., priority 2016, published 2025) can be followed below.

What all share (assay type): cell-based, human
For series [1], the system named is MCF-7 cells. Kind of series: PM resistant colony count of MCF-7 exposed to SCR7 and/or RS-1 during SpCas9-mediated DPH1 editing. The conditions noted are these: for mean PMr colonies #seeded cells: 80,000: SpCas9 Dph1 gRNA (20 mer). How it is done:
(§1) To evaluate and quantify the influence of DNA repair modulators on efficiency and specificity of gene editing, CRISPR/SpCAS9 and DPH1 targeting 20 mer gRNA was combined with compounds that modulate DNA repair mechanisms. The inhibitor Scr7 was applied either 4 hrs before transfection or 18 hrs after transfection of the gene editing modules until […] after transfection to inhibit DNA ligase IV.
SCR7 (1 μM final conc.) or RS-1 (8 μM final conc.) or SCR7+RS-1 (1 μM+8 μM final conc.) were added to MCF7 cells 4 hrs before transfection of the gene editing modules in the ‘early exposure’ setting. […]
(§2) The system upon which to determine the effects of DNA repair modulators consisted of the CRISPR/SpCas9 modules with DPH1 20 mer gRNA, transfected into MCF7 cells and subjected to subsequent DT and PM selection as described in the previous Examples. Frequencies of DTr, PMr, and double-resistant colonies were recorded to reflect gene inactivation and cassette integration events.

Series [2] has as its system MCF-7 cells. The series is described as follows: DT resistant colony count of MCF-7 exposed to SCR7 and/or RS-1 during SpCas9-mediated DPH1 editing. The conditions noted are these: SpCas9 Dph1 gRNA (20 mer); compound added 18 hrs after transfection; RS-1 8 μM, SCR7 1 μM.
The test system of a further series is MCF7. The series is described as follows: Viability (Promega CTG) assay. The conditions noted are these: 1 μM Scr7, 8 μM RS-1, 1 μM+8 μM combined. How it is done:
The RAD51-stimulatory compound 1 (RS-1) was applied to modulate homologous recombination (HR) during gene editing. RS-1 (Sigma Aldrich) was dissolved in DMSO to generate a stock solution of 10 mg/ml, which was diluted in RPMI medium just before application to cells.
The DNA ligase IV inhibitor SCR7 was applied to modulate non-homologous end joining (NHEJ) during gene editing. SCR7 (Sigma) was dissolved in DMSO to generate a stock solution of 10 mg/ml, which was diluted in RPMI medium just before application to cells.

Series [3] deals with MCF-7 cells. The series is described as follows: DT resistant colony count of MCF-7 exposed to SCR7 and/or RS-1 during SpCas9-mediated DPH1 editing. How it is done: as §1
SCR7 (1 μM final conc.) or RS-1 (8 μM final conc.) or SCR7+RS-1 (1 μM+8 μM final conc.) were added to MCF7 cells 4 hrs before transfection of the gene editing modules in the ‘early exposure’ setting. For ‘late exposure’ SCR7 (8 µM final conc.) or RS-1 (1 μM final conc.) were added to MCF7 cells 18 hrs after transfection. In both settings, cells were exposed to the modulators until 96 hr after transfection, i.e. ‘early exposure’ consisted of a treatment for a total of 100 hrs, ‘late exposure’ for a total of 78 hrs.
as §2

Setting [4] is: compound added 4 hr before transfection.
The mark [5] stands for this setting: compound added 4 hrs before transfection.
Setting [6] is: compound added 18 hr after transfection.

Marks after values point to notes of the source that are not given here.

Take SCR7: the “mean PMr colonies #seeded cells: 80,000” value with MCF-7 cells [1] (compound added 4 hrs before transfection, RS-1 8 μM, SCR7 1 μM) is reported as 13.3; with MCF-7 cells [1] (compound added 18 hrs after transfection, RS-1 8 μM, SCR7 1 μM), 25. Moreover, the “% PMr relative to DTr colonies” value in the series on MCF-7 cells [1] (SpCas9 Dph1 gRNA, compound added 18 hrs after transfection, RS-1 8 μM, SCR7 1 μM) was 5.1%. Further, the “increase of the number of PMr colonies compared to untreated control” value with MCF-7 cells [1] (compound 4 hrs before until 72 hr after transfection) is “approx. 2 fold”. The “% PM resistant colonies relative to untreated control” value in the series with MCF-7 cells [1] (setting [4]) was 156%*; with MCF-7 cells [1] (setting [6]), 125%. In addition, the “gRNA specific PM-r colonies (gRNA-scRNA)” value with MCF-7 cells [1] (setting [5]) is reported as 9.5. The “mean DTr colonies #seeded cells: 40,000” value with MCF-7 cells [2] was 488.8; with MCF-7 cells [3] (SpCas9 Dph1 gRNA (20 mer), compound added 4 hrs before transfection, RS-1 8 μM, SCR7 1 μM) it was 205.3. In addition, the “effect on the growth or viability of MCF7 cells at the applied dose” value is “does not inflict growth inhibitory or toxic effects” with MCF7 and “no effect on the growth or viability” in the series on MCF7 (listed as Scr7). In addition, the results for the “% DT resistant colonies relative to untreated control” value with MCF-7 cells [3] (setting [4]) and with MCF-7 cells [3] (setting [6]) were 102% and 95%*, respectively. For the same substance, in the series with MCF-7 cells [3] (setting [5]), the “gRNA specific DT-r colonies (gRNA-scRNA)” value is reported as 205.3. In the series on MCF-7 cells [3] (editing entity SpCas9-scRNA, compound added 4 hrs before transfection), the “Mean DT resistant colonies (4 × 40.000 seeded cells)” value is 0.
